Measurements as given in patent US10864253B2, “Tissue protective peptides for preventing and treating diseases and disorders associated with tissue damage” (Araim Pharmaceuticals, Inc., priority 2016, dated 2020).

Columns and labels:
[1] = tested on: Akt; experiment: Activation of Akt phosphorylation in HUVECs (Western blot); type: cell-based; conditions: HUVECs treated with peptide; Western blot anti-phospho-Akt / anti-Akt; FIG. 2
Description: In one assay for the activation of AKT by phosphorylation, HUVECs are purchased from Cell Applications (San Diego, Calif.) and grown in medium EGM-2 supplemented with 2% fetal calf serum (FCS) and penicillin/streptomycin (P/S) at 37° C. under air containing 5% CO2 in a humidified incubator. Preliminary experiments can be performed to determine the time course of the phosphorylation of Akt following stimulation by compounds that activated the tissue protective receptor. In some assays, the phosphorylation of Akt reaches a maximum 10 minutes following stimulation by compounds that activated the tissue protective receptor. After HUVECs are treated with tissue protective peptides or controls, cell lysates are prepared and Western blot is performed using anti-Akt and anti-phospho-Akt antibodies (Cell Signaling Technology, Danvers, Mass.). To perform the Western blot, cell lysates are subjected to SDS-PAGE, and transferred to nitrocellulose membranes (Amersham Biosciences, Piscataway, N.J.). The membrane is blocked for 1 h at room temperature with PBS containing 2% BSA and 0.05% Tween 20. The blots are incubated overnight at 4° C. or for 4 h at room temperature with a primary antibody against phospho-Akt, followed by incubation for 1 h with a secondary, horseradish peroxidase-conjugated antibody. Then the blots are reprobed with an antibody against Akt to confirm equal protein loading. […]

[2] = tested on: STZ-induced diabetic mice; experiment: STZ-induced diabetic neuropathy mouse model, paw thermal withdrawal latency; type: in vivo; conditions: STZ diabetic Swiss Webster mice, FIG. 3
Description: To test a peptide in a diabetic neuropathy mouse model, male Swiss Webster mice are given a single injection of STZ (180 mg/kg i.p.) to induce insulin-deficient diabetes. Hyperglycemia is confirmed 3 days thereafter, and to ensure induction of sufficient neuropathy, only mice with blood glucose levels exceeding 15 mmol/l are used. […] The time from initiation of heating to paw withdrawal is recorded in 4 separate trials 5 minutes apart, with the median value of the last 3 trials used for each mouse. […]
Briefly, male Swiss Webster mice were given a single injection of STZ (180 mg/kg i.p.) to induce insulin-deficient diabetes. […] The time from initiation of heating to paw withdrawal was recorded in 4 separate trials 5 minutes apart, with the median value of the last 3 trials used for each mouse.

GDKA (Tissue protective peptide) was tested, and the “activation of AKT (phosphorylation of Akt)” value [1] was “activated AKT”, the “thermal threshold (thermal withdrawal latency)” value ([2]; eye drops 50 microliters of 50 nanomolar solution to both eyes five days/week, after 12 weeks of therapy) was “normal thermal threshold” and the “thermal threshold compared with PBS-treated diabetic mice” value ([2]; eye drops 50 nanomolar, five days/week, 12 weeks) was “significantly lower”.
